{"source": "patent US11904051B2", "about": "“Shear stress sensitive liposomes” (Universität Basel, priority 2018, dated 2024)", "assay": "Spatially resolved SAXS of liposomes under dynamic (flow/shear) condition in microfluidic device", "type": "physicochemical", "description": "The measurement in glass capillaries provided the fingerprint of Pad-PC-Pad liposome structure in static condition. In order to investigate the behavior of Pad-PC-Pad liposomes under an external perturbation, such as a shear stress gradient, 2D raster SAXS scans of Pad-PC-Pad liposomes under flow conditions, produced in a microfluidic device, were recorded. Three flow velocities v were tested: v=0.002; 0.02; and 0.2 μL/s. The corresponding shear rates were determined using Eq. 1. From the lowest to the highest flow rate, the shear rates in the constriction (h=250 μm, w=125 μm) were=1.54, 15.4, and 154.0 s^−1, whereas in the wide region (h=250 μm, w=1000 μm) they corresponded to =0.2 s^−1, 2.0 s^−1, and 20.0 s^−1 2 D maps of the mean scattering intensity in the range Δq=0:096 to 0:102 nm^−1 corresponding to a real space range Δd=65.4 to 61.6 nm between the overall size and the size of the phospholipid head-to-head distance are shown in FIG. 12.\nThe local modifications of the averaged scattering intensity distribution observed in the 2D scanning SAXS maps of FIG. 12 supported the selection of seven regions of the micro fluidic device, as shown in the sketch of FIG. 13. Three regions were selected before the constriction: one far (#1), one approaching (#2), and one very close (A); symmetrically, on the outlet side, three areas were chosen one very close (B), one close (#4), and one far from the constriction (#5). Region #3 was selected in the constriction avoiding the edges of the device. For each region, the radially integrated scattering intensity I as a function of the scattering vector q at each flow rate v is shown.\nThe spatially resolved SAXS measurements were performed at the cSAXS beamline at the Swiss Light Source (PSI, Villigen, Switzerland). The X-ray beam was focused to 25 μm×50 μm (vertical×horizontal) spot size at the specimen location, the photon energy was set to 11:2 keV (λ=1:1 Å), and the sample-detector distance to 7:102 m, determined by the first scattering order of a silver behenate specimen. The scattering signal was recorded using the Pilatus 2M detector (Kraftet al., J. Synchrotron Radiat. 2009, 16, 368-375) (pixel size: 172 μm_×172 μm). Dynamic spatially resolved SAXS measurements of the liposomal suspensions were performed using microfluidic devices mounted on an aluminum/polyetheretherketone/aluminum sample holder. Two-dimensional (2D) scans were realized line-by-line by continuously moving the device in horizontal direction, while the detector recorded the data in burst mode. 48 (v)×96 (h) points at step size 25 μm (v)×50 μm (h) were acquired in a pre-selected region of the microfluidic device with an exposure time of 1:5 s per point. The data were processed using the Matlab package available from the beamline (https://www.psi.ch/sls/csaxs/software). During the experiment, the flow rates were adjusted using a syringe pump system (Nemesys, Cetoni GmbH, Korbussen, Germany) connected to the microchannel using polytetrafluoroethylene (PTFE) tubing. For the point-wise background correction, the scattering signal of ultra-pure water in the microfluidic device for all the measured flow rates was recorded before the acquisition of the SAXS signal of the liposomal suspensions. For the microfluidic device with a rectangular channel cross-section, the wall shear rates were calculated from the volumetric flow rates v using the following equation: (Molloy et al., Journal of Thrombosis and Haemostasis 2016, 15, 972-982) λ=6v=h^2w (1) with the shear rate [s^−1], v the volumetric flow rate [μL/s], and w and h the width and height [μm] of the channel, respectively.", "key": {"[1]": {"settings": "flow rate 0.002 pL/s, position #1"}, "[2]": {"settings": "flow rate 0.002 pL/s, position #2"}, "[3]": {"settings": "flow rate 0.002 pL/s, position #3 (constriction)"}, "[4]": {"settings": "flow rate 0.002 pL/s, position #4"}, "[5]": {"settings": "flow rate 0.002 pL/s, position #5"}, "[6]": {"settings": "flow rate 0.002 pL/s, position A"}, "[7]": {"settings": "flow rate 0.002 pL/s, position B"}, "[8]": {"settings": "flow rate 0.02 pL/s, position #1"}, "[9]": {"settings": "flow rate 0.02 pL/s, position #2"}, "[10]": {"settings": "flow rate 0.02 pL/s, position #3 (constriction)"}, "[11]": {"settings": "flow rate 0.02 pL/s, position #4"}, "[12]": {"settings": "flow rate 0.02 pL/s, position #5"}, "[13]": {"settings": "flow rate 0.02 pL/s, position A"}, "[14]": {"settings": "flow rate 0.02 pL/s, position B"}, "[15]": {"settings": "flow rate 0.20 pL/s, position #1"}, "[16]": {"settings": "flow rate 0.20 pL/s, position #2"}, "[17]": {"settings": "flow rate 0.20 pL/s, position #3 (constriction)"}, "[18]": {"settings": "flow rate 0.20 pL/s, position #4"}, "[19]": {"settings": "flow rate 0.20 pL/s, position #5"}, "[20]": {"settings": "flow rate 0.20 pL/s, position A"}, "[21]": {"settings": "flow rate 0.20 pL/s, position B"}}}
{"smiles": "CCCCCCCCCCCCCCCC(=O)NCC(CNC(=O)CCCCCCCCCCCCCCC)OP(=O)([O-])OCC[N+](C)(C)C", "note": "[Pad-PC-Pad, 1,3-palmitoylamido-1,3-deoxy-sn-glycero-2-phosphatidylcholine]", "values": [{"measurement": "Radius of gyration Rg", "setting": "[1]", "value": "59.5 ± 0.2", "unit": "nm"}, {"measurement": "head-to-head distance dhh", "setting": "[1]", "value": "3.4 ± 0.7", "unit": "nm"}, {"measurement": "Radius of gyration Rg", "setting": "[2]", "value": "59.1 ± 0.1", "unit": "nm"}, {"measurement": "head-to-head distance dhh", "setting": "[2]", "value": "3.1 ± 0.4", "unit": "nm"}, {"measurement": "Radius of gyration Rg", "setting": "[3]", "value": "63.0 ± 0.5", "unit": "nm"}, {"measurement": "head-to-head distance dhh", "setting": "[3]", "value": "3.9 ± 0.7", "unit": "nm"}, {"measurement": "Radius of gyration Rg", "setting": "[4]", "value": "61.1 ± 0.2", "unit": "nm"}, {"measurement": "head-to-head distance dhh", "setting": "[4]", "value": "3.9 ± 0.4", "unit": "nm"}, {"measurement": "Radius of gyration Rg", "setting": "[5]", "value": "61.6 ± 0.2", "unit": "nm"}, {"measurement": "head-to-head distance dhh", "setting": "[5]", "value": "3.8 ± 0.3", "unit": "nm"}, {"measurement": "Radius of gyration Rg", "setting": "[6]", "value": "60.3 ± 0.4", "unit": "nm"}, {"measurement": "head-to-head distance dhh", "setting": "[6]", "value": "3.4 ± 0.5", "unit": "nm"}, {"measurement": "Radius of gyration Rg", "setting": "[7]", "value": "59.3 ± 0.9", "unit": "nm"}, {"measurement": "head-to-head distance dhh", "setting": "[7]", "value": "4.0 ± 0.6", "unit": "nm"}, {"measurement": "Radius of gyration Rg", "setting": "[8]", "value": "60.2 ± 0.2", "unit": "nm"}, {"measurement": "head-to-head distance dhh", "setting": "[8]", "value": "3.4 ± 0.7", "unit": "nm"}, {"measurement": "Radius of gyration Rg", "setting": "[9]", "value": "58.0 ± 0.4", "unit": "nm"}, {"measurement": "head-to-head distance dhh", "setting": "[9]", "value": "2.9 ± 0.2", "unit": "nm"}, {"measurement": "Radius of gyration Rg", "setting": "[10]", "value": "64.3 ± 0.6", "unit": "nm"}, {"measurement": "head-to-head distance dhh", "setting": "[10]", "value": "3.5 ± 0.6", "unit": "nm"}, {"measurement": "Radius of gyration Rg", "setting": "[11]", "value": "59.1 ± 0.3", "unit": "nm"}, {"measurement": "head-to-head distance dhh", "setting": "[11]", "value": "3.6 ± 0.3", "unit": "nm"}, {"measurement": "Radius of gyration Rg", "setting": "[12]", "value": "61.3 ± 0.1", "unit": "nm"}, {"measurement": "head-to-head distance dhh", "setting": "[12]", "value": "3.9 ± 0.4", "unit": "nm"}, {"measurement": "Radius of gyration Rg", "setting": "[13]", "value": "55.1 ± 0.5", "unit": "nm"}, {"measurement": "head-to-head distance dhh", "setting": "[13]", "value": "2.9 ± 0.2", "unit": "nm"}, {"measurement": "Radius of gyration Rg", "setting": "[14]", "value": "52.4 ± 0.8", "unit": "nm"}, {"measurement": "head-to-head distance dhh", "setting": "[14]", "value": "4.3 ± 0.5", "unit": "nm"}, {"measurement": "Radius of gyration Rg", "setting": "[15]", "value": "61.6 ± 0.4", "unit": "nm"}, {"measurement": "head-to-head distance dhh", "setting": "[15]", "value": "3.4 ± 0.9", "unit": "nm"}, {"measurement": "Radius of gyration Rg", "setting": "[16]", "value": "61.0 ± 0.5", "unit": "nm"}, {"measurement": "head-to-head distance dhh", "setting": "[16]", "value": "3.4 ± 0.7", "unit": "nm"}, {"measurement": "Radius of gyration Rg", "setting": "[17]", "value": "64.0 ± 0.8", "unit": "nm"}, {"measurement": "head-to-head distance dhh", "setting": "[17]", "value": "3.8 ± 0.8", "unit": "nm"}, {"measurement": "Radius of gyration Rg", "setting": "[18]", "value": "58.0 ± 0.3", "unit": "nm"}, {"measurement": "head-to-head distance dhh", "setting": "[18]", "value": "4.0 ± 0.6", "unit": "nm"}, {"measurement": "Radius of gyration Rg", "setting": "[19]", "value": "60.0 ± 0.4", "unit": "nm"}, {"measurement": "head-to-head distance dhh", "setting": "[19]", "value": "4.0 ± 0.7", "unit": "nm"}, {"measurement": "Radius of gyration Rg", "setting": "[20]", "value": "61.4 ± 0.6", "unit": "nm"}, {"measurement": "head-to-head distance dhh", "setting": "[20]", "value": "3.2 ± 0.6", "unit": "nm"}, {"measurement": "Radius of gyration Rg", "setting": "[21]", "value": "52.3 ± 0.9", "unit": "nm"}, {"measurement": "head-to-head distance dhh", "setting": "[21]", "value": "4.4 ± 0.4", "unit": "nm"}]}
